In patent publication US12486300B2, “Mithramycin oxime derivatives having increased selectivity and anti-cancer activity” (University of Kentucky Research Foundation, priority 2018, dated 2025):
pEC50, pIC50: −log10 of the molar value.

Legend:
[1] = system: TC32 Ewing sarcoma cells, expressing EWS-FLI1; assay: Growth inhibition assay, TC32 cells; format: cell-based; conditions: for TC32 vs. PC3 / pIC50: Table 1C; for TC32 vs. PC3: cellular selectivity; for pIC50: read-out: IC50 TC-32; for pEC50: Table 1D, read-out: TC-32 Mean EC50; for PC:TC32 (cellular selectivity): ratio of GI50 PC3 to TC32
Method: (§1) Growth inhibition assay to assess cytotoxicity in ETS vs non-ETS expressing cells. Cells were seeded in clear 96-well plates (VWR, Radnor, PA). Seeding densities were optimized for each cell line to support 5 days of linear growth. Following a 24 hours attachment period, cells in duplicate wells were treated with half-log increments of respective compounds (0 nM and 0.3 nM-10 μM). Working stocks were prepared from an initial 10 mM drug stock diluted in either 100% ethanol or dimethyl sulfoxide (DMSO). All wells contained a final concentration of 0.1% (v/v) respective organic solvent. Immediately following treatment, cell viability was measured for vehicle control (Day 0) wells. Cell viability was measured in the remaining wells after 72 hours of incubation with compound or vehicle control (Day 3).
(§2) Percent viability, relative to the initial cell seeding concentration, was calculated by ((TreatmentDay3−Vehicle ControlDay0)/(Vehicle ControlDay3−Vehicle ControlDay0))×100. Percent cell viability was plotted as a function of compound concentration (Log [M]) and the data were fit using a 3-parameter non-linear model with fixed Hill slope constant and 4-parameter non-linear model with variable Hill slope constant. The model with the best curve fit was used to estimate the GI50 in GraphPad Prism 7.0 software (GraphPad Software, La Jolla, CA). The 3-parameter equation used was Y=Bottom+(Top−Bottom)/(1+10[…]((X−Log[IC50]))). The 4-parameter equation used was Y=Bottom+(Top−Bottom)/(1+10[…]((Log[IC50]−X)*Hillslope)). Top and Bottom are plateaus in the units of the Y-axis (response). IC50 is the response (Y-axis) halfway between Top and Bottom plateaus.
(§3) All compounds were tested at least once in multi-well replicates and each experiment included one a control compound (i.e., MTM) to ensure the stable response of the cell lines. The selectivity index was estimated by determining the ratio of GI50 estimates between ETS fusion negative and ETS fusion positive cell lines.

[2] = system: PC3 Prostate Cancer Cells; assay: Growth inhibition assay, PC3 cells; format: cell-based; conditions: for pIC50: Table 1C; for pEC50: Table 1D
Method: as §1, §2, §3

| SMILES | PC:TC32 (cellular selectivity) [1] | also measured |
| --- | --- | --- |
| COC(C(=NOCC(=O)N(C)C(Cc1cn(C)c2ccccc12)C(=O)N1CCOCC1)C(O)C(C)O)C1Cc2cc3cc(OC4CC(OC5CC(O)C(O)C(C)O5)C(O)C(C)O4)c(C)c(O)c3c(O)c2C(=O)C1OC1CC(OC2CC(OC3CC(C)(O)C(O)C(C)O3)C(O)C(C)O2)C(O)C(C)O1 (stereo not shown) [AK-B6] | – | TC32 vs. PC3 [1]: >3×; pIC50 [1]: 6.92 to 7.49; pEC50 [1]: 7.97; pIC50 [2]: 6.43 to 6.82; pEC50 [2]: 7.28 |
| COC(C(=NOCC(=O)NC(Cc1cn(C)c2ccccc12)C(=O)N1CCOCC1)C(O)C(C)O)C1Cc2cc3cc(OC4CC(OC5CC(O)C(O)C(C)O5)C(O)C(C)O4)c(C)c(O)c3c(O)c2C(=O)C1OC1CC(OC2CC(OC3CC(C)(O)C(O)C(C)O3)C(O)C(C)O2)C(O)C(C)O1 (stereo not shown) [AK-B11] | – | TC32 vs. PC3 [1]: >8×; pIC50 [1]: 6.52 to 6.83; pEC50 [1]: 7.30; pIC50 [2]: 5.60 to 5.80; pEC50 [2]: 6.18 |
| CCOC(=O)[C@H](Cc1c[nH]c2ccccc12)NC(=O)CO/N=C(\[C@@H](O)[C@@H](C)O)[C@@H](OC)[C@@H]1Cc2cc3cc(O[C@H]4C[C@@H](O[C@H]5C[C@@H](O)[C@H](O)C(C)O5)[C@H](O)C(C)O4)c(C)c(O)c3c(O)c2C(=O)[C@H]1O[C@H]1C[C@@H](O[C@H]2C[C@@H](O[C@H]3C[C@](C)(O)[C@H](O)C(C)O3)[C@H](O)C(C)O2)[C@H](O)C(C)O1 (stereo partly shown) [MTM (41)] | 13.5 | pEC50 [1]: 6.58; pEC50 [2]: 5.39 |
| CO[C@H](/C(=N/OCC(=O)N[C@@H](Cc1c[nH]c2ccccc12)C(N)=O)[C@@H](O)[C@@H](C)O)[C@@H]1Cc2cc3cc(O[C@H]4C[C@@H](O[C@H]5C[C@@H](O)[C@H](O)C(C)O5)[C@H](O)C(C)O4)c(C)c(O)c3c(O)c2C(=O)[C@H]1O[C@H]1C[C@@H](O[C@H]2C[C@@H](O[C@H]3C[C@](C)(O)[C@H](O)C(C)O3)[C@H](O)C(C)O2)[C@H](O)C(C)O1 (stereo partly shown) [MTM (42)] | 8.5 | pEC50 [1]: 6.52; pEC50 [2]: 5.45 |
| COC(=O)C(Cc1ccccc1)NC(=O)C(Cc1c[nH]c2ccccc12)NC(=O)CON=C(C(O)C(C)O)C(OC)C1Cc2cc3cc(OC4CC(OC5CC(O)C(O)C(C)O5)C(O)C(C)O4)c(C)c(O)c3c(O)c2C(=O)C1OC1CC(OC2CC(OC3CC(C)(O)C(O)C(C)O3)C(O)C(C)O2)C(O)C(C)O1 (stereo not shown) [MTM (51)] | 2.2 | – |
| COC(=O)C(C)NC(=O)C(Cc1c[nH]c2ccccc12)NC(=O)CON=C(C(O)C(C)O)C(OC)C1Cc2cc3cc(OC4CC(OC5CC(O)C(O)C(C)O5)C(O)C(C)O4)c(C)c(O)c3c(O)c2C(=O)C1OC1CC(OC2CC(OC3CC(C)(O)C(O)C(C)O3)C(O)C(C)O2)C(O)C(C)O1 (stereo not shown) [MTM (52)] | 6.6 | – |
| CNC(=O)C(Cc1c[nH]c2ccccc12)NC(=O)C(Cc1c[nH]c2ccccc12)NC(=O)CON=C(C(O)C(C)O)C(OC)C1Cc2cc3cc(OC4CC(OC5CC(O)C(O)C(C)O5)C(O)C(C)O4)c(C)c(O)c3c(O)c2C(=O)C1OC1CC(OC2CC(OC3CC(C)(O)C(O)C(C)O3)C(O)C(C)O2)C(O)C(C)O1 (stereo not shown) [MTM (53)] | 5.0 | – |
| COC(C(=NOCC(=O)NC(Cc1c[nH]c2ccccc12)C(=O)NC(C)CO)C(O)C(C)O)C1Cc2cc3cc(OC4CC(OC5CC(O)C(O)C(C)O5)C(O)C(C)O4)c(C)c(O)c3c(O)c2C(=O)C1OC1CC(OC2CC(OC3CC(C)(O)C(O)C(C)O3)C(O)C(C)O2)C(O)C(C)O1 (stereo not shown) [MTM (55)] | 2.7 | – |
| COC(C(=NOCC(=O)NC(Cc1c[nH]c2ccccc12)C(=O)NCc1cnccn1)C(O)C(C)O)C1Cc2cc3cc(OC4CC(OC5CC(O)C(O)C(C)O5)C(O)C(C)O4)c(C)c(O)c3c(O)c2C(=O)C1OC1CC(OC2CC(OC3CC(C)(O)C(O)C(C)O3)C(O)C(C)O2)C(O)C(C)O1 (stereo not shown) [MTM (56)] | 1.9 | – |
| COC(C(=NOCC(=O)NC(Cc1c[nH]c2ccccc12)C(=O)NC(Cc1c[nH]c2ccccc12)c1nc(C)no1)C(O)C(C)O)C1Cc2cc3cc(OC4CC(OC5CC(O)C(O)C(C)O5)C(O)C(C)O4)c(C)c(O)c3c(O)c2C(=O)C1OC1CC(OC2CC(OC3CC(C)(O)C(O)C(C)O3)C(O)C(C)O2)C(O)C(C)O1 (stereo not shown) [MTM (58)] | 2.4 | – |
| COC(C(=NOCC(=O)Nc1ccc2[nH]ccc2c1)C(O)C(C)O)C1Cc2cc3cc(OC4CC(OC5CC(O)C(O)C(C)O5)C(O)C(C)O4)c(C)c(O)c3c(O)c2C(=O)C1OC1CC(OC2CC(OC3CC(C)(O)C(O)C(C)O3)C(O)C(C)O2)C(O)C(C)O1 (stereo not shown) [MTM (60)] | 10 | – |
| COC(=O)c1ccc(NC(=O)CON=C(C(O)C(C)O)C(OC)C2Cc3cc4cc(OC5CC(OC6CC(O)C(O)C(C)O6)C(O)C(C)O5)c(C)c(O)c4c(O)c3C(=O)C2OC2CC(OC3CC(OC4CC(C)(O)C(O)C(C)O4)C(O)C(C)O3)C(O)C(C)O2)c(OCC(C)C)c1 (stereo not shown) [MTM (61)] | 5.7 | – |
| COC(C(=NOCCNC(=O)c1ccc([N+](=O)[O-])c(OCC(C)C)c1)C(O)C(C)O)C1Cc2cc3cc(OC4CC(OC5CC(O)C(O)C(C)O5)C(O)C(C)O4)c(C)c(O)c3c(O)c2C(=O)C1OC1CC(OC2CC(OC3CC(C)(O)C(O)C(C)O3)C(O)C(C)O2)C(O)C(C)O1 (stereo not shown) [MTM (63)] | 13.3 | – |
| COC(C(=NOCC(=O)NCc1ccc2cc[nH]c2c1)C(O)C(C)O)C1Cc2cc3cc(OC4CC(OC5CC(O)C(O)C(C)O5)C(O)C(C)O4)c(C)c(O)c3c(O)c2C(=O)C1OC1CC(OC2CC(OC3CC(C)(O)C(O)C(C)O3)C(O)C(C)O2)C(O)C(C)O1 (stereo not shown) [MTM (64)] | 12.3 | – |
| COC(C(=NOCC(=O)NCc1ccc2[nH]ccc2c1)C(O)C(C)O)C1Cc2cc3cc(OC4CC(OC5CC(O)C(O)C(C)O5)C(O)C(C)O4)c(C)c(O)c3c(O)c2C(=O)C1OC1CC(OC2CC(OC3CC(C)(O)C(O)C(C)O3)C(O)C(C)O2)C(O)C(C)O1 (stereo not shown) [MTM (65)] | 20.1 | – |
| COC(C(=NOCC(=O)Nc1ccc2cc[nH]c2c1)C(O)C(C)O)C1Cc2cc3cc(OC4CC(OC5CC(O)C(O)C(C)O5)C(O)C(C)O4)c(C)c(O)c3c(O)c2C(=O)C1OC1CC(OC2CC(OC3CC(C)(O)C(O)C(C)O3)C(O)C(C)O2)C(O)C(C)O1 (stereo not shown) [MTM (66)] | 4.2 | – |
| COC(C(=NOCC(=O)Nc1ccc2c(c1)CC(=O)N2)C(O)C(C)O)C1Cc2cc3cc(OC4CC(OC5CC(O)C(O)C(C)O5)C(O)C(C)O4)c(C)c(O)c3c(O)c2C(=O)C1OC1CC(OC2CC(OC3CC(C)(O)C(O)C(C)O3)C(O)C(C)O2)C(O)C(C)O1 (stereo not shown) [MTM (67)] | 3.8 | – |
| COC(C(=NOCC(=O)Nc1cccc2[nH]ccc12)C(O)C(C)O)C1Cc2cc3cc(OC4CC(OC5CC(O)C(O)C(C)O5)C(O)C(C)O4)c(C)c(O)c3c(O)c2C(=O)C1OC1CC(OC2CC(OC3CC(C)(O)C(O)C(C)O3)C(O)C(C)O2)C(O)C(C)O1 (stereo not shown) [MTM (68)] | 4.5 | – |
| COC(C(=NOCC(=O)Nc1ccc2scnc2c1)C(O)C(C)O)C1Cc2cc3cc(OC4CC(OC5CC(O)C(O)C(C)O5)C(O)C(C)O4)c(C)c(O)c3c(O)c2C(=O)C1OC1CC(OC2CC(OC3CC(C)(O)C(O)C(C)O3)C(O)C(C)O2)C(O)C(C)O1 (stereo not shown) [MTM (69)] | 11.4 | – |
| COC(C(=NOCC(=O)Nc1ccc2ncsc2c1)C(O)C(C)O)C1Cc2cc3cc(OC4CC(OC5CC(O)C(O)C(C)O5)C(O)C(C)O4)c(C)c(O)c3c(O)c2C(=O)C1OC1CC(OC2CC(OC3CC(C)(O)C(O)C(C)O3)C(O)C(C)O2)C(O)C(C)O1 (stereo not shown) [MTM (70)] | 7.2 | – |
| COC(C(=NOCC(=O)Nc1ccc2[nH]cnc2c1)C(O)C(C)O)C1Cc2cc3cc(OC4CC(OC5CC(O)C(O)C(C)O5)C(O)C(C)O4)c(C)c(O)c3c(O)c2C(=O)C1OC1CC(OC2CC(OC3CC(C)(O)C(O)C(C)O3)C(O)C(C)O2)C(O)C(C)O1 (stereo not shown) [MTM (71)] | 3.2 | – |
| COC(C(=NOCC(=O)Nc1ccc2[nH]c(C)cc2c1)C(O)C(C)O)C1Cc2cc3cc(OC4CC(OC5CC(O)C(O)C(C)O5)C(O)C(C)O4)c(C)c(O)c3c(O)c2C(=O)C1OC1CC(OC2CC(OC3CC(C)(O)C(O)C(C)O3)C(O)C(C)O2)C(O)C(C)O1 (stereo not shown) [MTM (72)] | 20.9 | – |
| COC(C(=NOCC(=O)Nc1ccc2ncccc2c1)C(O)C(C)O)C1Cc2cc3cc(OC4CC(OC5CC(O)C(O)C(C)O5)C(O)C(C)O4)c(C)c(O)c3c(O)c2C(=O)C1OC1CC(OC2CC(OC3CC(C)(O)C(O)C(C)O3)C(O)C(C)O2)C(O)C(C)O1 (stereo not shown) [MTM (74)] | 66.6 | – |
| COC(C(=NOCC(=O)Nc1ccc2cnccc2c1)C(O)C(C)O)C1Cc2cc3cc(OC4CC(OC5CC(O)C(O)C(C)O5)C(O)C(C)O4)c(C)c(O)c3c(O)c2C(=O)C1OC1CC(OC2CC(OC3CC(C)(O)C(O)C(C)O3)C(O)C(C)O2)C(O)C(C)O1 (stereo not shown) [MTM (75)] | 118 | – |
| COC(C(=NOCC(=O)Nc1cccc2cc[nH]c12)C(O)C(C)O)C1Cc2cc3cc(OC4CC(OC5CC(O)C(O)C(C)O5)C(O)C(C)O4)c(C)c(O)c3c(O)c2C(=O)C1OC1CC(OC2CC(OC3CC(C)(O)C(O)C(C)O3)C(O)C(C)O2)C(O)C(C)O1 (stereo not shown) [MTMox (73)] | 5.9 | – |
